Measured values: ChEMBL document CHEMBL6109107, “Exploring the broad-spectrum activity of carbohydrate-based Iberin analogues: From anticancer effect to antioxidant properties” (Eur J Med Chem, 2025)
Calls of active or inactive are those of the source. The calls are words filed in the database; no cut-off is given here.

Assays:
[1] = Selectivity index, ratio of IC50 for human HaCaT cells to IC50 for human T24 cells; format: toxicity; conditions: HaCaT cells versus T24 cells, read-out: Ratio IC50
[2] = Cytotoxicity against human Arec32 cells assessed as cell viability by MTT assay; format: toxicity, cell-based
T-24 = test: Cytotoxicity against human T24 cells assessed as reduction in cell viability incubated for 72 hrs by resazurin dye based assay; format: functional; conditions: T-24, 72 h
[3] = Selectivity index, ratio of IC50 for human HaCaT cells to IC50 for human A549 cells; format: toxicity; conditions: HaCaT cells versus A549 cells, read-out: Ratio IC50
[4] = Cytotoxicity against human HaCaT cells assessed as reduction in cell viability incubated for 72 hrs by resazurin dye based assay; format: toxicity
A549 [5] = test: Cytotoxicity against human A549 cells assessed as reduction in cell viability incubated for 72 hrs by resazurin dye based assay; format: functional; conditions: A549, 72 h
Arec32 [6] = test: Induction of Nrf2 activity in human Arec32 cells assessed as drug concentration required to double luciferase expression incubated for 24 hrs by luminescence based plate reader analysis; format: cell-based; conditions: filed as activator
MeWo = test: Cytotoxicity against human MeWo cells assessed as reduction in cell viability incubated for 72 hrs by resazurin dye based assay; format: functional
[7] = Selectivity index, ratio of IC50 for human HaCaT cells to IC50 for human MeWo cells; format: toxicity; conditions: HaCaT cells versus MeWo cells, read-out: Ratio IC50
A549 [8] = test: Cytotoxicity against human A549 cells assessed as inhibition of cell growth incubated for 72 hrs by MTT assay; format: functional, cell-based; conditions: A549, 72 h
Arec32 [9] = test: Induction of Nrf2 activity in human Arec32 cells assessed as increase in luciferase expression at >30 uM incubated for 24 hrs by luminescence based plate reader analysis; format: cell-based

Structure (SMILES) | selectivity ratio [1] | EC50 [2] | IC50 (T-24) | selectivity ratio [3] | IC50 at 72 h [4] | IC50 (A549 [5]) | CD (Arec32 [6]) | IC50 (MeWo) | selectivity ratio [7] | IC50 (A549 [8]) | Activity (Arec32 [9])
CC(=O)OC[C@H]1O[C@@H](N=C=S)[C@H](OC(C)=O)[C@@H]([S+](C)[O-])[C@@H]1OC(C)=O (mixture of isomers) | 1.1 | > 30 µM | 159 µM | 1 | 180 µM | 183 µM | 5.75 µM | 178 µM | 1 |  | 
CC(=O)OC[C@H]1O[C@@H](N=C=S)[C@H](OC(C)=O)[C@@H](S(=O)(=O)c2ccccc2)[C@@H]1OC(C)=O | 1.6 | > 30 µM | 16.8 µM | 0.7 | 27.5 µM | 40.3 µM | 2.09 µM | 22.9 µM | 1.2 |  | 
C[S+]([O-])CCCN=C=S (racemic) | 2.9 | > 30 µM | 12.2 µM | 1.8 | 33 µM | 20.7 µM | 3.12 µM | 32.8 µM | 1 | 30.2 µM | 
CC(=O)OC[C@H]1O[C@@H](N=C=S)[C@H](OC(C)=O)[C@@H](OC(C)=O)[C@@H]1OC(C)=O | 1.5 | > 30 µM | 48.7 µM | 1.1 | 71.4 µM | 64.6 µM |  | 58.1 µM | 1.2 |  | inactive
CC(=O)OC[C@H]1O[C@@H](N=C=S)[C@H](OC(C)=O)[C@@H]([S@+]([O-])c2ccccc2)[C@@H]1OC(C)=O | 1.3 | > 30 µM | 48.9 µM | 1 | 61.2 µM | 58.9 µM | 2.09 µM | 57.4 µM | 1.1 |  | 
CSCCCN=C=S | 3.2 | > 30 µM | 14.4 µM | 1.7 | 43.9 µM | 31.1 µM | 2.94 µM | 31.6 µM | 1.5 | 48 µM | 
CC(=O)OC[C@H]1O[C@@H](N=C=S)[C@H](OC(C)=O)[C@@H](Sc2ccccc2)[C@@H]1OC(C)=O | 1.2 | > 30 µM | 19.4 µM | 1 | 23.2 µM | 24.9 µM |  | 29.1 µM | 0.9 |  | inactive
CC(C)(C)c1cc(O)ccc1O [E319] |  | > 30 µM |  |  |  |  | 1.68 µM |  |  |  | 
CS[C@@H]1[C@@H](OC(C)=O)[C@H](N=C=S)O[C@H](COC(C)=O)[C@H]1OC(C)=O | 1.5 | > 30 µM | 30.9 µM | 0.9 | 45.3 µM | 47.9 µM |  | 47 µM | 1 |  | inactive
CCS(=O)(=O)[C@@H]1[C@@H](OC(C)=O)[C@H](N=C=S)O[C@H](COC(C)=O)[C@H]1OC(C)=O | 2 | > 30 µM | 18 µM | 0.6 | 35.2 µM | 54.7 µM | 10.4 µM | 33 µM | 1.1 |  | 
CC[S+]([O-])[C@@H]1[C@@H](OC(C)=O)[C@H](N=C=S)O[C@H](COC(C)=O)[C@H]1OC(C)=O (mixture of isomers) | 1.1 | > 30 µM | 113 µM | 0.9 | 141 µM | 155 µM | 6.32 µM | 118 µM | 1.1 |  | 
CC(=O)OC[C@H]1O[C@@H](N=C=S)[C@H](OC(C)=O)[C@@H](S(C)(=O)=O)[C@@H]1OC(C)=O | 2 | > 30 µM | 19.9 µM | 0.6 | 40.1 µM | 62.8 µM | 6.21 µM | 39 µM | 1.2 |  | 
Nc1ccn([C@@H]2O[C@H](CO)[C@@H](O)C2(F)F)c(=O)n1 [GEMCITABINE] | 4.2 |  | 2.1 µM | 2.6 | 7.1 µM | 3 µM |  | 5.2 µM | 1.6 |  | 
CC(=O)OC[C@H]1O[C@@H](N=C=S)[C@H](OC(C)=O)[C@@H]([S@@+]([O-])c2ccccc2)[C@@H]1OC(C)=O | 1.1 | > 30 µM | 56.7 µM | 0.8 | 59.1 µM | 74.9 µM | 1.55 µM | 67.5 µM | 0.9 |  | 
CCS[C@@H]1[C@@H](OC(C)=O)[C@H](N=C=S)O[C@H](COC(C)=O)[C@H]1OC(C)=O | 1.5 | > 30 µM | 31.5 µM | 0.9 | 46.3 µM | 48.8 µM |  | 50 µM | 0.9 |  | inactive
CS(=O)(=O)CCCN=C=S | 3.3 | > 30 µM | 10.7 µM | 1.9 | 35.9 µM | 25.2 µM | 3.22 µM | 29.5 µM | 1.3 |  | 
